According to patent US9643917B2, “Water-soluble propofol derivatives and uses thereof” (JIANGSU NHWALUOKANG PHARMCEUTICAL RESEARCH AND DEVELOPMENT …, priority 2014, dated 2017):
Structures can show the parent of a compound that is named as a salt. Where two headings read alike, the source gives them in different places. Marks after values point to notes of the source that are not given here.

Legend:
[1] = in vivo; conditions: male, KM, mouse, intravenous, caudal vein injection, confirmation test
Experimental: (§1) Test samples for the experiment on rabbit were formulated to have corresponding concentrations based on the results from a preliminary test. […] Rats and mice were administered with samples having a fixed concentration of drugs, while the volume of administration altered according to actual situation. The volume of administration to rabbits was 1 mL/kg body weight.
(§2) ED50 and LD50 values concerning anesthesia were determined using a sequential method. Healthy KM mice (male), SD rats (male) and New Zealand White rabbits were used for test. […] For rabbits, the compounds were administered by injection at a constant rate via ear vein for 30 seconds. Before the test, a preliminary test was conducted to determine an approximate dosage (volume of administration) that leads to anesthetization (or death) of animals, which was set as the middle dosage in the formal test. […] The disappearance of righting reflex or death was used as indicators of pharmacological efficacy or toxicity, respectively. The formal test began with the administration of the middle dosage. If animals were anesthetized, a lower dosage was administered; if animals were not anesthetized, a higher dosage was administered, until the cycle was repeated for 3-4 times. LD50 and ED50 were calculated by a sequential method aot425 software. TI was calculated according to the following equation: TI=LD50/ED50.

[2] = system: KM mice; conditions: for TI Mouse: TI=LD50/ED50, mouse; for Mouse ED50: disappearance of righting reflex, caudal vein injection
Experimental: as §1, §2

[3] = system: SD rats; conditions: for TI Rat: TI=LD50/ED50, rat; for Rat ED50: disappearance of righting reflex, caudal vein injection
Experimental: as §1, §2

[4] = in vivo; conditions: male, SD, rat, intravenous, caudal vein injection
Experimental: as §1, §2

[5] = rat plasma, 37° C., HPLC
Experimental: (§3) 0.1 ml samples were taken from each of the solutions, added respectively to 1 ml of blood plasma of rabbit (taken from New Zealand white rabbits, treated according to conventional methods, anticoagulated with heparin) or 1 ml of blood plasma of rat (taken from live SD rats, processed according to conventional methods, anti coagulated with heparin), homogeneously mixed, and placed in a thermostatic water bath at 37° C. for incubation with time being recorded. Samples were taken at different time points after the experiment began, and 2 ml of acetonitrile was immediately added. The samples were shaken and centrifuged for 5 min (15,000 rpm), and the supernatant was then taken for HPLC analysis.

[6] = rabbit plasma, 37° C., HPLC
Experimental: as §3

[7] = system: Kunming mice; conditions: tail intravenous injection, n = 5
Experimental: Rats and mice were administered with samples having a fixed concentration of drugs, while the volume of administration altered according to actual situation. The volume of administration to rabbits was 1 mL/kg body weight.
The periods during which the righting reflex of mice disappeared (latent period) and recovered (persistent period) were recorded.

[8] = system: New Zealand White rabbits; conditions: TI=LD50/ED50, rabbit
Experimental: as §1, §2

[9] = physchem; conditions: physiological saline, saline or isotonic
[10] = 3 mg/ml solution, confirmation test
[11] = 6 mg/ml solution, confirmation test
[12] = 3 mg/ml solution, first test (*)
[13] = 6 mg/ml solution, first test (*)
[14] = dosage 2 * ED50, 3 mg/ml solution
[15] = dosage 2 * ED50, 6 mg/ml solution

In the case of `CC(C)c1cccc(C(C)C)c1O` [Propofol, 2,6-diisopropylphenol], the LD50 ([1]; 3 mg/ml solution) is reported as 38.4 mg/kg, the LD50 ([1]; 6 mg/ml solution) is reported as 42.9 mg/kg and the “TI Mouse” value [2, 10] is reported as 4.9. For the same compound, the “TI Mouse” value [2, 11] was 3.8, the “TI Rat” value ([3]; 3 mg/ml solution) was 5.5 and the “TI Rat” value ([3]; 6 mg/ml solution) was 4.9. It also gave an LD50 ([4]; 3 mg/ml solution) of 21.5 mg/kg and an LD50 ([4]; 6 mg/ml solution) of 17.4 mg/kg.

With `CC(C)c1cccc(C(C)C)c1OC(=O)[C@H](F)CCN(C)C.Cl` [E2, Propofol 4-(N,N-dimethyl)amino-2-(R)-fluorobutyrate hydrochloride] the “Dissociation percent 5 s” value [5] was 100%, the “Dissociation percent 15 s” value [6] was 97.7% and the “Dissociation percent 30 s” value [6] was 100%. For the same compound, the “TI Mouse” value [2, 10] was 3, the “TI Mouse” value [2, 12] was 4* and the “TI Mouse” value [2, 11] was 3.7. For the same compound, the “TI Mouse” value [2, 13] was 3.6*, the “Mouse ED50” value [2, 10] was 15.4 mg/kg and the “Mouse ED50” value [2, 12] was 17.9 mg/kg. For the same compound, the “Mouse ED50” value [2, 11] was 13.0 mg/kg, the “Mouse ED50” value [2, 13] was 15.2 mg/kg and the “TI Rat” value ([3]; 3 mg/ml solution) was 3.8. The “TI Rat” value ([3]; 6 mg/ml solution) was 3.1, the “Rat ED50” value ([3]; 3 mg/ml solution) was 9.8 mg/kg and the “Rat ED50” value ([3]; 6 mg/ml solution) was 10.1 mg/kg. The “Latent Period” value [7, 14] was 14.6 ± 0.9 s, the Persistent period [7, 14] was 383.6 ± 242.1 s and the “Latent Period” value [7, 15] was 14.2 ± 1.9 s. For the same compound, the Persistent period [7, 15] was 543 ± 231 s and the TI index [8] was 3.5.

With `CC(C)c1cccc(C(C)C)c1OC(=O)[C@@H](F)CCOP(=O)([O-])[O-].[Na+].[Na+]` [G2, {1-[4-(2,6-diisopropylphenoxy)-4-oxo-3-(S)-3-fluoro-1-butyl]} phosphate monoester disodium salt] the “Dissociation percent 5 s” value [5] was 48.5%, the “Dissociation percent 15 s” value [5] was 69.7% and the “Dissociation percent 15 s” value [6] was 37.2%. For the same compound, the “Dissociation percent 30 s” value [6] was 54.3%, the “TI Mouse” value [2, 10] was 3.0 and the “TI Mouse” value [2, 12] was 2.8*. The “TI Mouse” value [2, 11] was 2.3, the “TI Mouse” value [2, 13] was 1.9* and the “Mouse ED50” value [2, 10] was 19.8 mg/kg. For the same compound, the “Mouse ED50” value [2, 12] was 23.7 mg/kg, the “Mouse ED50” value [2, 11] was 22.8 mg/kg and the “Mouse ED50” value [2, 13] was 25.6 mg/kg. The “TI Rat” value ([3]; 3 mg/ml solution) was 3.3, the “TI Rat” value ([3]; 6 mg/ml solution) was 2.8 and the “Rat ED50” value ([3]; 6 mg/ml solution) was 21.1 mg/kg. For the same compound, the “Latent Period” value [7, 14] was 16.3 ± 0.8 s, the Persistent period [7, 14] was 383.6 ± 242.1 s and the “Latent Period” value [7, 15] was 15.7 ± 2.3 s. For the same compound, the Persistent period [7, 15] was 571 ± 173 s.

For `CC(C)c1cccc(C(C)C)c1OC(=O)C(F)CCOP(=O)([O-])[O-].[K+].[K+]` (racemic) [G1, {1-[4-(2,6-diisopropylphenoxy)-4-oxo-3-(R,S)-3-fluoro-1-butyl]} phosphate monoester dipotassium salt], the “Dissociation percent 5 s” value [5] was 54.1%, the “Dissociation percent 15 s” value [5] was 67.4% and the “Dissociation percent 30 s” value [5] was 86.9%. The “Dissociation percent 15 s” value [6] was 43.7% and the “Dissociation percent 30 s” value [6] was 68.7%.

In the case of `CC(C)c1cccc(C(C)C)c1OC(=O)[C@@H](F)CCCN(C)Cc1ccccc1.Cl` [E5, propofol 5-N-methyl-N-benzylamino-2-(S)-2-fluorovalerate hydrochloride], the “Dissociation percent 5 s” value [5] is reported as 72.3%, the “Dissociation percent 15 s” value [5] is reported as 97.3% and the “Dissociation percent 15 s” value [6] is reported as 48.4%. For the same compound, the “Dissociation percent 30 s” value [6] was 69.7%.

For `CC(C)c1cccc(C(C)C)c1OC(=O)C(F)CC(=O)[O-].[Na+]` [F7, Propofol-2-(R)-fluorobutyrate monoester sodium salt], the “Dissociation percent 5 s” value [5] was 58.8%, the “Dissociation percent 15 s” value [5] was 71.3% and the “Dissociation percent 30 s” value [5] was 85.4%. The “Dissociation percent 15 s” value [6] was 46.3%, the “Dissociation percent 30 s” value [6] was 72.8% and the “TI Mouse” value [2, 10] was 2.6. The “TI Mouse” value [2, 12] was 2.8*, the “TI Mouse” value [2, 11] was 3.1 and the “TI Mouse” value [2, 13] was 2.4*. For the same compound, the “Mouse ED50” value [2, 10] was 19.2 mg/kg, the “Mouse ED50” value [2, 12] was 21.4 mg/kg and the “Mouse ED50” value [2, 11] was 18.1 mg/kg. The “Mouse ED50” value [2, 13] was 20.7 mg/kg, the “TI Rat” value ([3]; 3 mg/ml solution) was 3.0 and the “TI Rat” value ([3]; 6 mg/ml solution) was 3.5. For the same compound, the “Rat ED50” value ([3]; 3 mg/ml solution) was 15.7 mg/kg, the “Rat ED50” value ([3]; 6 mg/ml solution) was 12.5 mg/kg and the “Latent Period” value [7, 14] was 20.2 ± 0.6 s. The Persistent period [7, 14] was 335.5 ± 218.1 s, the “Latent Period” value [7, 15] was 16.2 ± 2.2 s and the Persistent period [7, 15] was 517 ± 231 s. It also gave a TI index [8] of 2.6.

With `CC(C)c1cccc(C(C)C)c1OC(=O)[C@@H](CCN(C)C)C(F)(F)F.Cl` [E3, propofol 4-N,N-dimethylamino-2-(R)-2-trifluoromethylbutyrate hydrochloride] the “Dissociation percent 5 s” value [5] was 77.5%, the “Dissociation percent 15 s” value [6] was 51.7% and the “Dissociation percent 30 s” value [6] was 67.2%.

For `CCN(C)CCC(F)C(=O)Oc1c(C(C)C)cccc1C(C)C.Cl` (racemic) [E4, propofol 4-N-methyl-N-ethylamino-2-(R,S)-2-fluorobutyrate hydrochloride], the “Dissociation percent 5 s” value [5] was 70.2%, the “Dissociation percent 15 s” value [6] was 58.3% and the “Dissociation percent 30 s” value [6] was 70.4%.

With `CC(C)c1cccc(C(C)C)c1OC(=O)C(F)CCN(C)C` (racemic) [E1, Propofol 4-(N,N-dimethyl)amino-2-(R,S)-fluorobutyrate hydrochloride] the “Dissociation percent 5 s” value [5] was 75.1%, the “Dissociation percent 15 s” value [5] was 83.2% and the “Dissociation percent 30 s” value [5] was 96.7%. For the same compound, the “Dissociation percent 15 s” value [6] was 67.5%, the “Dissociation percent 30 s” value [6] was 85.5% and the solubility [9] was over 20 mg/mL.

For `CC(C)c1cccc(C(C)C)c1OC(=O)[C@@H](F)CCN1CC1.Cl` [E7, propofol 4-(aziridin-1-yl)-2-(S)-2-fluorobutyrate hydrochloride], the “Dissociation percent 5 s” value [5] was 92.3%, the “Dissociation percent 15 s” value [6] was 89.4% and the “Dissociation percent 30 s” value [6] was 94.4%.
